Measurements as given in patent publication US6815459B2, “Seleno compounds containing nitrone moiety, their preparation and their therapeutic uses” (Sam-Sung Electronics Co., Ltd., priority 2001, dated 2004).
≈ marks a conversion by molar mass, not a printed value. Read-outs that look alike come from different tables or passages of the source.

What was measured:
[1] = Determination of water solubility (UV, saturated solution); type: physicochemical; conditions: 10 mM phosphate buffer (pH 7.4), stirred 3 hours, filtered; for solubility at 3 h: read-out: C′ (μM) = A′ (C/A), concentration of the saturated solution (water solubility)
Experimental: With a Beckman DUI® 7500 Spectrophotometer, the UV absorption maximum of each compound was determined by eventually diluting the solution with MeOH as necessary.
A saturated solution of each compound was then prepared by stirring magnetically a small volume of 10 mM phosphate buffer (pH 7.4) in the presence of an excess test compound for 3 hours. The obtained saturated solution was filtered in order to remove solid compound through a Gelman 0.45 m filter and scanned by UV at the wavelength of the absorption maximum previously determined.

[2] = system: ischemic neuronal degeneration in hippocampus; test: Protection of cell damage by ischemia (in vivo); design: species or system Mongolian gerbils (Meriones unguiculatus); conditions: for Protective effects against ischemic neuronal degeneration: gerbil, 60 mg/kg P.O. 30 minutes after ischemic injury (post-treated), 4 days reperfusion
From the text: Male Mongolian gerbils (Meriones unguiculatus) weighing 80-88 g were used in the present study. […] A midline ventral incision was made in the neck. Both common carotid arteries were isolated, freed of nerve fibers, and occluded using nontraumatic aneurysm clips. Complete interruption of blood flow was confirmed by observing the central artery in eyeballs using ophthalmoscope. After five minutes of occlusion, the aneurysm clips were removed from both common carotid arteries. Restoration of blood flow (reperfusion) was observed directly under the microscope. Sham-operated controls were subjected to the same surgical procedures except that common carotid arteries were not occluded. Body temperature was monitored and maintained at 37° C.±0.5° C. during surgery and during the immediate postoperative period until the animals recovered fully from anesthesia. At the designated reperfusion time (4 days), operated animals and sham animals were killed. Animals were perfused transcardially with phosphate-buffered saline (PBS, pH 7.4) followed by 4% paraformaldehyde in 0.1 M phosphate buffer (pH 7.4) at 4 days (n=7) after surgery. The brains were removed, and postfixed in the same fixative for 4 hours. The brain tissues were cryoprotected by infiltration with 30% sucrose overnight. Cornoy fixed specimens were cut into 30 sections on a cryostat, were sequentially stained by Cresyl violet dye. Images of staining in the hippocampus of each animal were captured with an […]. […] All data obtained from the quantitative data were analyzed using one-way ANOVA to determine statistical significance. Bonferroni's test was used for post-hoc comparisons. P values below 0.05 or 0.01 were considered statistically significant.

rats [3] = conditions: cited from earlier work
mice = conditions: oral administration; cited from earlier work
[4] = Inhibition of lipid peroxidation of liposome (TBA method); type: biochemical; conditions: histidine-FeCl3/FeCl2, 37° C., 15 minutes, read-out: Inhibitor Concentration (IC50), lipid peroxidation
Experimental: The compounds of the present invention were tested for antioxidant effect in terms of the repression of the radical chain reaction of a multilayer liposome.
The liposome was prepared as followings: 30 mg of commercially available soybean phosphatidylcholine (PC, Sigma Chemical Co., U.S.A.) was dissolved in 1 mL of ethanol, and 200 of the ethanol/PC solution was added to 10 mL of 10 mM Tris buffer including 50 mM NaCl (pH 7.0) with stirring.
The ability of a compound to inhibit oxidation of the liposome was evaluated as followings: To 400 of the liposomes were added the test compound (in buffer or ethanol) and histidine-FeCl3 (167:33 μM final). Oxidation was initiated by the addition of FeCl2 (33 μM final prepared in nitrogen purged water). The mixtures were shaken at 37° C. for 15 minutes. […]. The aliquots were heated to 100° C. for 20 minutes. After ice cooling, 1 mL of chloroform was added to 1 mL of supernatant from tubes and tubes were centrifuged. The absorbances of the resulting supernatant were measured at 532 nm (see: Table 2).

[5] = Glutathione peroxidase like activity (NADPH-glutathione reductase coupled system); type: biochemical; conditions: 50 μM compound; for Rate A340/min(30˜300 sec) / Rate/0.00622 (nmol NADPH/min/mL): 25° C.; for % Ebselen (glutathione peroxidase activity): relative to Ebselen
Experimental: Glutathione peroxidase like activity was determined by the reduction of GSSG formed via the NADPH-glutathione reductase system as an indicator system.
To 350 of 50 mM Tris-HCl(pH 7.6) containing 5 mM of EDTA (assay buffer) are added in the following order:
1) 350 of assay buffer containing 6.4 mM of reduced glutathione (GSH), 640 μM of […] (NADPH), and 1.6 unit/mL of glutathione disulfide reductase (GR)
2) 70 of 800 μM of the test compound which was dissolved in DMSO (i.e., each compound was tested at a final concentration of 50 μM)
3) 350 of 0.007% tert-butyl hydroperoxide which was made by 1/10,000 dilution of tert-butyl hydroperoxide with DDW.
The final reaction volume is 1120.
The reaction was carried out at 25° C. […] The said activity or initial enzymatic rate is proportional to the slope of the variation of absorbance with time.
The catalytic activity for oxygen reduction of the compounds tested corresponds to the rate of consumption of NADPH.
They are expressed in n-moles of NADPH consumed per minute.

rats [6] = test: Acute toxicity LD50 in rats; type: in vivo

O=c1c2ccccc2[se]n1-c1ccccc1 [Ebselen, reference compound]
C′ (g/L = mg/mL), concentration of the saturated solution (water solubility) [1]: 0.001265 g/L = mg/mL
solubility at 3 h ([1]; aqueous buffer, thermodynamic from solid): 4.62 µM (≈ 1.27 µg/mL)
Protective effects against ischemic neuronal degeneration [2]: 59%
LD50 (rats [3]; intraperitoneal administration): 580 mg/kg
LD50 (rats [3]; oral administration): ≥ 6,810 mg/kg
LD50 (mice): ≥ 6,810 mg/kg

CC(C)/[N+]([O-])=C\c1cccc(-n2[se]c3ccccc3c2=O)c1 [Example 2, 2-[3-(N-isopropyl)nitronyl]phenyl-1,2-benzisoselenazol-3(2H)-one]
IC50 [4]: 111 µM
Rate A340/min(30˜300 sec) [5]: −0.125 A340/min
Rate/0.00622 (nmol NADPH/min/mL) [5]: 20.10 nmol NADPH/min/mL
% Ebselen (glutathione peroxidase activity) [5]: 105.96%

CC(C)(C)[N+]([O-])=Cc1ccccc1S(=O)(=O)O [S-PBN, reference compound]
IC50 [4]: 25000 µM

CC(C)/[N+]([O-])=C\c1ccc(Cn2[se]c3ccccc3c2=O)cc1 [Example 7, 2-[4-(N-isopropyl)nitronyl]benzyl-1,2-benzisoselenazol-3(2H)-one]
IC50 [4]: 246 µM
Rate A340/min(30˜300 sec) [5]: −0.084 A340/min
Rate/0.00622 (nmol NADPH/min/mL) [5]: 13.50 nmol NADPH/min/mL
% Ebselen (glutathione peroxidase activity) [5]: 71.17%

CC(C)[N+]([O-])=Cc1csc(-n2[se]c3ccccc3c2=O)n1 [Example 5, 2-[4-(N-isopropyl)nitronyl]thiazol-2-yl-1,2-benzisoselenazol-3(2H)-one]
C′ (g/L = mg/mL), concentration of the saturated solution (water solubility) [1]: 0.0414 g/L = mg/mL
solubility at 3 h [1]: 113.029 µM (≈ 41.4 µg/mL)
IC50 [4]: 1.2 µM
Rate A340/min(30˜300 sec) [5]: −0.125 A340/min
Rate/0.00622 (nmol NADPH/min/mL) [5]: 20.13 nmol NADPH/min/mL
% Ebselen (glutathione peroxidase activity) [5]: 106.11%
Neuroprotective effects compared with Ebselen ([2]; gerbil ischemia, 60 mg/kg P.O.): more neuroprotective effects against ischemic neuronal degeneration than Ebselen
Protective effects against ischemic neuronal degeneration [2]: 61%
LD50 (rats [6]; intraperitoneal administration in rats): ≥ 800 mg/kg
LD50 (rats [6]; oral administration in rats): ≥ 7,000 mg/kg

CC(C)/[N+]([O-])=C/c1ccc(-n2[se]c3ccccc3c2=O)cc1 [Example 1, 2-[4-(N-isopropyl)nitronyl]phenyl-1,2-benzisoselenazol-3(2H)-one]
IC50 [4]: 81.1 µM
Rate A340/min(30˜300 sec) [5]: −0.141 A340/min
Rate/0.00622 (nmol NADPH/min/mL) [5]: 22.67 nmol NADPH/min/mL
% Ebselen (glutathione peroxidase activity) [5]: 119.50%
